{"source": "patent US20230165772A1", "about": "“STABILIZED COSMETIC COMPOSITIONS WITH N, N'-DI-ACETYL CYSTINE” (Conopco, Inc., d/b/a UNILEVER, priority 2020, published 2023)", "key": {"[1]": {"test": "Odor and H2S generation of 4-alkylresorcinol solutions during storage", "type": "physicochemical", "conditions": "as stabilizer of 4-substituted resorcinols", "experimental": "(§1) Samples were prepared by dissolving 4-hexylresorcinol (HR) (200 mg) or 4-ethylresorcinol (ER) (200 mg) in DI water:butylene glycol (4:1; 20 ml) to generate a clear colorless homogeneous solution. A portion of each solution (5 ml) was added to a 20 ml scintilation vial containing either niacinamide (B3) (50 mg), NDAC (N,N′-diacetyl-L-cystine) (50 mg), NACys (N-acetyl-L-cysteine) (50 mg), B3 (50 mg)+NDAC (50 mg) or B3 (50 mg)+NACys (50 mg). A hydrogen sulfide (H2S) test strip (Sigma) was placed above the sample solution and the samples sealed. Odor and H2S generation (unchanged test strip white color=no H2S generated; changed test strip brown/black color=H2S generated) were monitored for 2 weeks at R.T. (about 20 to about 22° C.)."}, "[2]": {"test": "HPLC quantitation of 4-hexylresorcinol (HR) remaining after storage", "type": "physicochemical", "experimental": "The amount of 4-hexylresorcinol (HR) or 4-ethylresorcinol (ER) present in each of the samples used for the color measurements was quantitated after 2 weeks @ R.T. (˜20-22° C.) by high performance liquid chromatography (HPLC). A sample aliquot (100 uL) from each of the color measurement solutions was diluted with DI water:acetonitrile (1:1, 900 uL) to generate test samples (1 ml). An aliquot (10 uL) from each test sample was injected into a Waters 2695 Separations Module, chromatographed and separated on a Restek Pinnacle DB C18 (5 μm, 4.6×150 mm) column operated at 30° C. and the 4-alkylresorcinols monitored using a Waters 2996 Photodiode Array Detector set @ 281 nm. […] Standard control samples of HR at 1×, 5×higher and 5×lower concentrations were prepared fresh and immediately analysed; standard curves were generated within the test sample range and linearity was confirmed.\nAll samples were analyzed in duplicate and the mean value reported. The amount of 4-alkylresorcinol present for each test sample after 2 weeks was determined by measuring the chromatographic peak area under the curve @ 281 nm for HR and expressed as the percent ratio over the corresponding chromatographic peak area under the curve @ 281 nm for the freshly prepared control sample."}, "[3]": {"conditions": "biologically acceptable vehicle, neutral pH range; cited from earlier work"}, "[4]": {"test": "Color of 4-alkylresorcinol solutions after storage (visual appearance and L*a*b*, Labscan XE)", "type": "physicochemical", "experimental": "as §1\nAfter 2 weeks of storage at R.T. (about 20 to about 22° C.), the color of each solution was assessed visually. Additionally, L*a*b* measurements determined experimentally using a Labscan XE instrument (Hunter Associates Labs Inc., Reston, Va.) and processed with Universal Software (version 4.10). The L* parameter measures darkness and lightness and ranges from black (L*=0) to white (L*=100). The a* parameter measures color content and intensity ranging from green (a*<0) to neutral grey (a*=0) to red (a*>0). The b* parameter also measures color content and intensity ranging from blue (b*<0) to neutral grey (b*=0) to yellow (b*>0)."}, "[5]": {"conditions": "freshly prepared solution of HR"}}, "note": "“Also recorded” adds a separate entry of the source."}
{"smiles": "CCOC(=O)[C@@H](N)CSSC[C@H](N)C(=O)OCC", "note": "[DEC, Cystine diethyl ester]", "values": [{"measurement": "sulfurous odor generation by the stabilizer (in words)", "setting": "[1]", "result": "sulfurous odor generating"}]}
{"smiles": "CC(=O)N[C@@H](CS)C(=O)O", "note": "[NACys, N-acetyl-L-cysteine]", "values": [{"measurement": "stabilizing resorcinol derivatives (in words)", "setting": "[2]", "result": "effective"}, {"measurement": "sulfurous odor generation by the stabilizer (in words)", "setting": "[1]", "result": "generates sulforous odor; also recorded: sulfurous odor generating; also recorded: upleasant sulfurous odor"}]}
{"smiles": "N[C@@H](CSSC[C@H](N)C(=O)O)C(=O)O", "note": "[cystine]", "values": [{"measurement": "solubility", "setting": "[3]", "result": "extremely low"}]}
{"smiles": "CC(=O)N[C@@H](CSSC[C@H](NC(C)=O)C(=O)O)C(=O)O", "note": "[NDAC, N,N′-diacetyl-L-Cystine]", "values": [{"measurement": "prevention of color formation / discoloration (in words)", "setting": "[4]; after 2 weeks at R.T., in the presence or absence of B3", "result": "effective"}, {"measurement": "sulfurous odor generation by the stabilizer (in words)", "setting": "[1]", "result": "no sulfurous odor generation"}]}
{"smiles": "CCCCCCc1ccc(O)cc1O", "note": "[HR, 4-hexylresorcinol]", "values": [{"measurement": "decomposition of HR upon HPLC analysis", "setting": "[2]; [5]", "result": "no decomposition"}, {"measurement": "color of freshly prepared solution", "setting": "[4]; [5]", "result": "colorless"}]}
